Reference: patent US8927580B2, “Thiosemicarbazone compounds and use in the treatment of cancer” (Oncochel Therapeutics LLC, priority 2010, dated 2015)

Key:
[1] = DMS-53 xenograft i.v. study: body and organ weights, haematology, histology; format: in vivo, nude mice (BALBc nu/nu)
[2] = tested on: DMS-53 human lung carcinoma; experiment: DMS-53 xenograft in nude mice, oral gavage: tumour growth; format: in vivo, nude mice (BALBc nu/nu); conditions: 10 mg/kg, 21 days
NDRG1 = experiment: Western blot analysis, NDRG1 expression; format: cell-based; conditions: MIAPaCa-2 cells
Protocol: (§1) Western analysis was performed via established protocols (Gao, J. and D. R. Richardson (2001). Blood 98: 842-50). The primary antibodies used were against NDRG1 (Abcam; UK), p21, cyclin D1, transferrin receptor 1 (TfR1; Santa Cruz, CA, USA) and β-actin (Sigma-Aldrich), with secondary HRP-conjugated goat and mouse antibodies (Sigma-Aldrich).
(§2) Dp4cycH4mT was examined to determine whether it could up-regulate NDRG-1 expression. To further evaluate the effect of the chelator Dp4cycH4mT on other key molecules involved in cell cycle progression, the expression of the cyclin-dependent kinase inhibitor, p21, as well as cyclin D1 in MIAPaCa-2 cells was also examined.

metmyoglobin (metMb) = experiment: metMb formation in vivo; set-up: species or system C57BL6 mice; conditions: 6 mg/kg intravenously, 30 min post-administration, heart
Protocol: FIG. 14. Effect of thiosemicarbazone chelators on metMb-formation in vivo. MetMb levels after Dp44mT Triapine® or Dp4cycH4mT treatment in vivo at a dose of 6 mg/kg administered intravenously via the tail vein. Mice in the control group were treated with vehicle alone. At 30 min post-administration, whole hearts were collected for determination of metMb levels.
Mouse heart tissue was exhaustively perfused with ice-cold HBSS to remove blood and homogenized in ice-cold HBSS containing protease inhibitor cocktail (Roche, Basel, Switzerland). Heart homogenates were centrifuged (16,000×xg/45 min/4° C.) and the supernatant ([oxyMb]=50 μM) used immediately.
(§3) The levels of metHb and metMb in RBC lysates were determined using a Shimadzu UV-Vis spectrophotometer (UV-1800; Shimadzu Corporation, Kyoto, Japan) at 577 nm and 630 nm for metHb and metMb in accordance with published methods (Winterbourn CC and Carrell R W (1977). Biochem J 165: 141-148).
(§4) C57BL6 mice (7-8 weeks-old) were used under a protocol approved by the university of Sydney Animal Ethics Committee. Dp44mT, Triapine® or Dp4cycH4mT (all at 6 mg/kg) were dissolved in 30% propylene glycol/saline and administered iv via the tail vein. Subsequently, 30 min after administration, mice were anesthetized with isoflurane and blood samples obtained by cardiac puncture. Blood samples were lysed with 2.5 volumes of ultrapure water for metHb estimation. Mice were sacrificed with isoflurane, the heart exhaustively perfused with HBSS and Mb isolated.

[3] = mouse, in vivo
[4] = tested on: PANC 1 human pancreatic carcinoma; experiment: PANC 1 xenograft in nude mice: tumour growth; format: in vivo, nude mice (BALBc nu/nu); conditions: for average tumour size (% of the original tumour size): after 6 weeks; for final tumour weight: after 43 days
Protocol: FIG. 5). […] (5 mg/kg) or vehicle control.

p21 = experiment: Western blot analysis, p21 expression; format: cell-based; conditions: MIAPaCa-2 cells
Protocol: as §1, §2

cyclin D1 = experiment: Western blot analysis, cyclin D1 levels; format: cell-based; conditions: MIAPaCa-2 cells
Protocol: as §1, §2

[5] = tested on: DMS-53 human lung carcinoma; experiment: DMS-53 xenograft in nude mice, i.v. administration: tumour growth; format: in vivo, nude mice (BALBc nu/nu); conditions: 0.75 mg/kg
methemoglobin (metHb) = experiment: metHb formation in vivo; set-up: species or system C57BL6 mice; conditions: 6 mg/kg intravenously, blood taken after 30 min
Protocol: FIG. 13. Effect of thiosemicarbazone chelators on metHb-formation in vivo. MetHb after Dp44mT, Triapine® or Dp4cycH4mT treatment in vivo at a dose of 6 mg/kg administered intravenously via the tail vein. Mice in the control group were treated with vehicle alone. At 30 minutes post-administration, whole blood was collected for determination of metHb levels.
as §3, §4

[6] = DMS-53 xenograft oral study: body and organ weights, haematology, biochemistry, histology; format: in vivo, nude mice (BALBc nu/nu)
[7] = tested on: MIAPaCa-2 pancreatic cancer cells; experiment: MTT proliferation assay, MIAPaCa-2; format: cell-based; conditions: Homo sapiens, MIA PaCa-2; MIAPaCa-2, MTT, 72 h
Protocol: (§5) The pancreatic cancer cell lines, including MIAPaCa-2, PANC 1, CAPAN-2 and CFPAC-1 were a generous gift from Prof. Andrew Biankin (Garvan Institute, NSW, Australia). The MIAPaCa-2, PANC 1 and CFPAC-1 cell lines were grown in DMEM medium (Invitrogen) and CAPAN-2 cells were grown in McCoy's medium (Invitrogen). All media was supplemented with 10% (v/v) fetal calf serum (Invitrogen), 1% (v/v) non-essential amino acids (Invitrogen), 1% (v/v) sodium pyruvate (Invitrogen), 2 mM L-glutamine (Invitrogen), 100 μg/mL of streptomycin (Invitrogen), 100 U/ml penicillin (Invitrogen), and 0.28 μg/mL of fungizone.
(§6) To further examine the spectrum of anti-proliferative activity, Dp4cycH4mT was tested against pancreatic cancer in vitro, performing MTT proliferation assays with PANC 1, MIAPaCa-2, CFPAC-1 and CAPAN-2 pancreatic cancer cells. As a comparison, currently used treatments for pancreatic cancer including gemcitabine and 5-fluorouracil were also tested. The iron chelator, DFO, was included as a positive control.
(§7) Table 2A. Anti-proliferative activity of Dp4cycH4mT against pancreatic cancer cell lines. Growth and antiproliferative activity IC50 (μM) values of Dp4cycH4mT in a variety of pancreatic cell lines and in comparison to DFO and the clinically used drugs gemcitabine and 5-fluorouracil as determined by the MTT assay. Cells were seeded and allowed to attach to wells for 24 h and then incubated for 72 h at 37° C. with control medium or the chelators. Results are mean±SD (3 experiments).
as §7, with “2B.” for “2A.”, “IC90” for “Growth and antiproliferative activity IC50”

[8] = tested on: PANC 1 pancreatic cancer cells; experiment: MTT proliferation assay, PANC 1; format: cell-based; conditions: Homo sapiens; PANC 1, MTT, 72 h
Protocol: as §5, §6, §7
as §7, with “2B.” for “2A.”, “IC90” for “Growth and antiproliferative activity IC50”

[9] = tested on: CFPAC-1 pancreatic cancer cells; experiment: MTT proliferation assay, CFPAC-1; format: cell-based; conditions: Homo sapiens; CFPAC-1, MTT, 72 h
Protocol: as §5, §6, §7
as §7, with “2B.” for “2A.”, “IC90” for “Growth and antiproliferative activity IC50”

[10] = tested on: CAPAN-2 pancreatic cancer cells; experiment: MTT proliferation assay, CAPAN-2; format: cell-based; conditions: Homo sapiens; CAPAN-2, MTT, 72 h
Protocol: as §5, §6, §7
as §7, with “2B.” for “2A.”, “IC90” for “Growth and antiproliferative activity IC50”

[11] = tested on: transferrin receptor 1 (TfR1); experiment: Western blot analysis, transferrin receptor 1 levels; format: cell-based; conditions: MIAPaCa-2 cells
Protocol: as §1, §2

[12] = tested on: human RBCs (methemoglobin formation); format: cell-based; conditions: 3 h, 25 μM
Protocol: FIG. 12. Effect of DFO and thiosemicarbazone chelators on metHb-formation in vitro. Whole RBCs were incubated with 1-25 μM chelator at 37° C. for 3 h. Cells were lysed with ultra-pure H2O and metHb levels were measured spectrophotometrically. Results are the mean±SD from 3 experiments.
Whole blood samples were collected from healthy human donors or mice in suitable blood collection tubes containing EDTA and used immediately. Red blood cells (RBCs) were isolated by centrifugation (480 xg/5 min/4° C.) then washed in Hank's balanced salt solution (HBSS). RBCs were resuspended 1:1 in HBSS and whole RBC assays were carried out at 37° C.
as §3
The effect of chelator concentration (1-25 μM) on metHb-generation with intact RBCs was assessed (FIG. 12). […] At 25 μM, these chelators increased metHb formation to 19.95±1.0 and 19.9±3.0% of total Hb, respectively (FIG. 12). The negative control chelator Dp2mT, by design, features a methyl group that hinders complex formation. Accordingly, this chelator cannot participate in the redox-interaction with iron that gives rise to metHb formation (FIG. 12).

[13] = gemcitabine 5 mg/kg intra-peritoneally every 3rd day

For `CN(C)C(=S)NN=C(c1ccccn1)c1ccccn1` [Dp44mT, di-2-pyridylketone 4,4-dimethyl-3-thiosemicarbazone, reference compound], the “histology of the liver, spleen, kidney, brain or tumour (H & E) vs control” value ([1]; 2 weeks i.v., Dp44mT 0.75 mg/kg, Dp4e4mT.HCl 4 and 6 mg/kg) was “no significant differences”, the “myocardial lesions (Gomori-Trichrome stain)” value ([1]; 2 weeks i.v., Dp44mT 0.75 mg/kg, Dp4e4mT.HCl 4 or 6 mg/kg) was “myocardial lesions were observed” and the “change in red blood cell count, haemoglobin or white blood cell count” value ([1]; after 2 weeks, Dp44mT 0.75 mg/kg, Dp4e4mT.HCl 1.5, 4 or 6 mg/kg i.v.) was “no significant change”. The HCT ([1]; i.v., 0.75 mg, average) was 0.43, the HGB ([1]; i.v., 0.75 mg, average) was 135.50 g/L and the PLT ([1]; i.v., 0.75 mg, average) was 1274.50 10 × 9 cells/L. The RBC ([1]; i.v., 0.75 mg, average) was 9.87 10 × 12 cells/L, the WBC ([1]; i.v., 0.75 mg, average) was 5.38 10 × 9 cells/L and the “Body weight (% of initial weight)” value ([1]; i.v., 0.75 mg/kg) was 91.01 ± 5.3 % initial weight. For the same molecule, the Brain weight ([1]; i.v., 0.75 mg/kg) was 0.32 ± 0.01 g, the Heart weight ([1]; i.v., 0.75 mg/kg) was 0.11 ± 0.01 g and the Kidney weight ([1]; i.v., 0.75 mg/kg) was 0.23 ± 0.01 g. The Liver weight ([1]; i.v., 0.75 mg/kg) was 1.04 ± 0.05 g, the Spleen weight ([1]; i.v., 0.75 mg/kg) was 0.13 ± 0.02 g and the “weight loss (% of initial weight)” value ([1]; i.v., 0.75 mg/kg) was 9%. The Tumour weight [2] was 0.46 ± 0.1 g, the NDRG1 expression (NDRG1) was “significantly (p<0.01) up-regulated” and the “levels of metMb” value (metmyoglobin (metMb)) was 82.3±2.6%. For the same molecule, the “KIDNEY Fe (score for presence of iron stained by Perl's stain)” value [3] was “+/−”, the “SPLEEN HPC (score for the presence of haematopoietic cells in the splenic red pulp)” value [3] was “N” and the “iron deposits in the kidney” value [3] was “iron deposits were observed”. The “average tumour size (% of the original tumour size)” value ([4]; 0.4 mg/kg i.v. 5 days/week) was 305%, the final tumour weight ([4]; 0.4 mg/kg i.v.) was 122 ± 33 mg and the p21 expression (p21) was “markedly (p<0.05) increasing”. For the same molecule, the “cyclin D1 levels” value (cyclin D1) was “significantly (p<0.05) reduced”, the Tumour weight [5] was 0.1 ± 0.02 g and the “net tumour size (% of the initial tumour volume)” value ([5]; after 25 days) was 122%. For the same molecule, the “metHb (% of total Hb)” value (methemoglobin (metHb)) was 6.3±0.8 % of total Hb, the “myocardial lesions (Gomori-Trichrome stain)” value ([6]; Dp44mT 0.75 mg/kg, Dp4e4mT.HCl 3 weeks at 2.5, 5, 7.5 and 10 mg/kg oral) was “myocardial lesions were observed” and the “histology of the liver, spleen, kidney, brain or tumour (H & E) vs control” value ([6]; Dp44mT 2 weeks at 0.75 mg/kg, Dp4e4mT.HCl 3 weeks at 2.5, 5, 7.5 and 10 mg/kg oral) was “no significant differences”. For the same molecule, the “Body weight (% initial)” value ([6]; oral, 10 mg/kg) was 93.6 ± 1.8 % initial, the Brain weight ([6]; oral, 10 mg/kg) was 0.363 ± 0.008 g and the Heart weight ([6]; oral, 10 mg/kg) was 0.102 ± 0.005 g. For the same molecule, the Kidney weight ([6]; oral, 10 mg/kg) was 0.208 ± 0.004 g, the Liver weight ([6]; oral, 10 mg/kg) was 0.88 ± 0.02 g and the Lung weight ([6]; oral, 10 mg/kg) was 0.133 ± 0.008 g. For the same molecule, the Spleen weight ([6]; oral, 10 mg/kg) was 0.081 ± 0.005 g.

In the case of `Nc1ccn([C@@H]2O[C@H](CO)[C@@H](O)C2(F)F)c(=O)n1` [Gemcitabine, gemcitabine], the NDRG1 expression (NDRG1) is reported as “no marked effect”, the IC50 [7] is reported as 0.02 ± 0.005 µM and the IC90 [7] is reported as greater than 5 µM. For the same molecule, the IC50 [8] was 11 ± 0.8 µM, the IC90 [8] was greater than 5 µM and the IC50 [9] was 0.02 ± 0.02 µM. For the same molecule, the IC90 [9] was 30.4 ± 2.2 µM, the “KIDNEY Fe (score for presence of iron stained by Perl's stain)” value [3] was “−” and the “LIVER HP (histopathological changes)” value [3] was “N”. For the same molecule, the “LUNG HP (histopathological changes)” value [3] was “N”, the “MYOCARDIUM Fibrosis” value [3] was “−” and the “MYOCARDIUM HP (histopathological changes)” value [3] was “N”. The “SPLEEN HPC (score for the presence of haematopoietic cells in the splenic red pulp)” value [3] was “N”, the “iron deposits in the kidney” value [3] was “no evidence of iron deposits” and the IC50 [10] was 40.8 ± 4.7 µM. The IC90 [10] was greater than 5 µM, the Tumour weight ([4]; Gemcitabine 5 mg/kg/day) was 0.07 ± 0.02 g and the “average tumour size (% of the original tumour size)” value [4, 13] was 319%. For the same molecule, the final tumour weight [4, 13] was 67 ± 25 mg, the p21 expression (p21) was “did not modulate” and the “cyclin D1 levels” value (cyclin D1) was “did not modulate”. For the same molecule, the TfR1 levels [11] was “did not modulate”.

For `NC(=S)NN=Cc1ncccc1N` [Triapine®, 3-aminopyridine-2-carboxaldehyde thiosemicarbazone], the “levels of metMb” value (metmyoglobin (metMb)) was 75.2±4.2% and the “metHb formation (% of total Hb)” value [12] was 19.95±1.0 % of total Hb.
